According to patent US10882837B2, “Amide compounds and use thereof” (ALPHALA CO., LTD., priority 2017, dated 2021):

Legend:
GCGR [1] = target: T1, GCGR (Homo sapiens, UniProt P47871); test: HTRF cAMP assay in primary human hepatocytes stimulated with recombinant glucagon; assay type: cell-based; parameters: endogenous in cells; host or cells: primary human hepatocytes
Description: Downstream secondary messenger eAMP induced by glucagon was detected by Cisbio cAMP Dynamic 2 kit. Testing compounds were each prepared as a dimethyl sulfoxide (DMSO) solution at the concentration of 10 mM. To evaluate the potency of compounds in inhibiting the cAMP production, glucagon receptor (GCGR) overexpressed CHO-K1 cells or human primary hepatocytes were treated with compounds with a serial dilution. The cells were re-suspended in Hank's Balanced Salt solution (HBSS) contained 0.1% (w/v) bovine serum albumin and 800 nM 3-isobutyl-1-methylxanthine (IBMX) and seeded into low volume, 384 wells white plate. The diluted compounds were then added into the plate for 30 minutes pre-incubation where the final DMSO concentration was 1%. The cells were stimulated with glucagon at the concentration equaled to EC50 (an indicium of the concentration of a drag that gives half-maximal response) for 30 minutes at room temperature. After incubation, lysis buffer contain cAMP antibody and fluorescence acceptor were added into each well for additional 60 minutes incubation.
The HTRF cAMP assay was performed by following the manufacturer guidance. Primary human hepatocytes, pre-incubated with tested compounds at various concentrations, were stimulated with recombinant glucagon and the IC50 values were determined by the non-linear regression based on the amount of cAMP production.
Target sequence in this assay (P47871 26-477): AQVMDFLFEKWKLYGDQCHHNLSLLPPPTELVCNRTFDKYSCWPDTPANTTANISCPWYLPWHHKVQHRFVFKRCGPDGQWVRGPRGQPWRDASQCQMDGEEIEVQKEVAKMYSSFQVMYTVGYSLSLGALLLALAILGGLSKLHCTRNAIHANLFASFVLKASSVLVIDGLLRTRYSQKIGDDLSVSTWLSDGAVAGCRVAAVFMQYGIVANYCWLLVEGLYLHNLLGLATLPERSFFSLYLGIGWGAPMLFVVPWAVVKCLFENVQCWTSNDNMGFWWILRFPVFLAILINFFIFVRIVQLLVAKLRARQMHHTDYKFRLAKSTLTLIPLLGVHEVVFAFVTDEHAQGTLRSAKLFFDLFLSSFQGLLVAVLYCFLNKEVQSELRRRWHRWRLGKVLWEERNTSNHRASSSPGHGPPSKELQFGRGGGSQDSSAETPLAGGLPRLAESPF

glucagon receptor (GCGR) = target: T2, glucagon receptor (GCGR) (Homo sapiens, UniProt P47871); test: Glucagon cAMP inhibition assay (Cisbio cAMP Dynamic 2 HTRF); assay type: cell-based; conditions: GCGR overexpressed CHO-K1 cells or human primary hepatocytes (not specified); glucagon at EC50
T2 construct: expressed in transfected cells; host or cells: CHO-K1
T2 sequence (P47871 26-477, species assumed): as the sequence (P47871 26-477) above
How it was run: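 GCGR-overexpressing CHO-K1 cells or human primary hepatocytes in HBSS with 0.1% BSA and 800 nM IBMX, pre-incubated 30 min with compound (1% DMSO final), then stimulated 30 min at room temperature with glucagon at its EC50. cAMP measured by HTRF after 60 min lysis; IC50 from non-linear regression.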

GCGR [2] = target: T1, GCGR; test: I125-glucagon binding assay (competition, GCGR membrane fractions); parameters: expressed in transfected cells; host or cells: CHO-K1; inhibition: dose or concentration left out as unconfirmed; conditions: for IC50: competition with I125-glucagon 0.0625 nM, membrane fractions from GCGR overexpressed CHO-K1 cells; for inhibition / inhibition at 30 µM: read-out: percentage of inhibition (number in parenthesis in IC50 binding column); for inhibition at 30 µM: compound at 30 μM
How it was run: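 Membranes from CHO-K1 cells overexpressing GCGR (7.5 µg/well) were preincubated 5 min with serially diluted compound in 50 mM Tris pH 7.4, 0.5% BSA. I125-glucagon was then added at 0.0625 nM final and incubated 30 min at 25 °C. After filtration, bound radioactivity was counted and IC50 derived by non-linear regression.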
Target sequence in this assay (P47871 26-477, species assumed): as the sequence (P47871 26-477) above

Row | SMILES | IC50 (GCGR [1]) | IC50 (glucagon receptor (GCGR)) | IC50 (GCGR [2]) | inhibition (GCGR [2]) | inhibition at 30 µM (GCGR [2])
1 | CCC(C)[C@H](Nc1ccc(C(=O)NCCC(=O)O)cc1)c1ccc(-c2nnc(-c3ccccc3)o2)cc1 (stereo partly drawn) [Compound 1-49, 3-(4-(((1S)-2-methyl-1-(4-(5-phenyl-1,3,4-oxadiazol-2-yl)phenyl)butyl)amino)benzamido)propanoic acid] | 19 nM | 2050 nM | 92 nM |  | 
2 | CCC(C)[C@H](Nc1ccc(C(=O)NCCC(=O)O)cc1)c1ccc(-c2noc(-c3ccccc3)n2)cc1 (stereo partly drawn) [Compound 2-19, 3-(4-(((1S)-2-methyl-1-(4-(5-phenyl-1,2,4-oxadiazol-3-yl)phenyl)butyl)amino)benzamido)propanoic acid] | 15 nM | 473 nM | 49 nM |  | 
3 | CCCCC(Nc1ccc(C(=O)NCCC(=O)OCC)cc1)c1ccc(-c2noc(-c3ccccc3)n2)cc1 (centres unmarked) [Compound 2-7, ethyl 3-(4-((1-(4-(5-phenyl-1,2,4-oxadiazol-3-yl)phenyl)pentyl)amino)benzamido)propanoate] |  | 49 nM | 1210 nM | 27% | 
4 | CCCC[C@@H](Nc1ccc(C(=O)NCCC(=O)O)cc1)c1ccc(-c2noc(-c3ccccc3)n2)cc1 [Compound 2-36, (R)-3-(4-((1-(4-(5-phenyl-1,2,4-oxadiazol-3-yl)phenyl)pentyl)amino)benzamido)propanoic acid] |  | 338 nM | 199 nM |  | 
5 | CCCCC(Nc1ccc(C(=O)NCCC(=O)O)cc1)c1ccc(-c2noc(-c3ccccc3)n2)cc1 (centres unmarked) [Compound 2-8, 3-(4-((1-(4-(5-phenyl-1,2,4-oxadiazol-3-yl)phenyl)pentyl)amino)benzamido)propanoic acid] |  | 934 nM | 70 nM |  | 
6 | CCC(C)C(Nc1ccc(C(=O)NCCC(=O)O)cc1)c1ccc(-c2nnc(C(C)(C)C)o2)cc1 (centres unmarked) [Compound 1-22, 3-(4-((1-(4-(5-(tert-butyl)-1,3,4-oxadiazol-2-yl)phenyl)-2-methylbutyl)amino)benzamido)propanoic acid] |  | 10300 nM | 246 nM |  | 
7 | CC(C)C(Nc1ccc(C(=O)NCCC(=O)O)cc1)c1ccc(-c2nnc(C(C)(C)C)o2)cc1 (centres unmarked) [Compound 1-24, 3-(4-((1-(4-(5-(tert-butyl)-1,3,4-oxadiazol-2-yl)phenyl)-2-methylpropyl)amino)benzamido)propanoic acid] |  | > 30000 nM | 314 nM |  | 
8 | CC(C)C(Nc1ccc(C(=O)NCCC(=O)O)cc1)c1ccc(-c2nnc(-c3ccc(F)cc3)o2)cc1 (centres unmarked) [Compound 1-18, 3-(4-((1-(4-(5-(4-Fluorophenyl)-1,3,4-oxadiazol-2-yl)phenyl)-2-methylpropyl)amino)benzamido)propanoic acid] |  | 4350 nM | 122 nM |  | 
9 | CCOC(=O)CCNC(=O)c1ccc(NC(c2ccc(-c3nnc(-c4ccccc4)o3)cc2)C(C)C)cc1 (centres unmarked) [Compound 1-3, Ethyl 3-(4-((2-methyl-1-(4-(5-phenyl-1,3,4-oxadiazol-2-yl)phenyl)propyl)amino)benzamido)propanoate] |  | 55 nM | 1870 nM |  | 43%
10 | CCOC(=O)CCNC(=O)c1ccc(NC(c2ccc(-c3noc(-c4cccs4)n3)cc2)C(C)C)cc1 (centres unmarked) [Compound 2-11, ethyl 3-(4-((2-methyl-1-(4-(5-(thiophen-2-yl)-1,2,4-oxadiazol-3-yl)phenyl)propyl)amino)benzamido)propanoate] |  | 180 nM | 3060 nM | 38% | 
11 | CC(C)C[C@@H](Nc1ccc(C(=O)NCCC(=O)O)cc1)c1ccc(-c2noc(-c3ccccc3)n2)cc1 [Compound 2-44, (R)-3-(4-((3-methyl-1-(4-(5-phenyl-1,254-oxadiazol-3-yl)phenyl)butyl)amino)benzamido)propanoic acid] |  | 334 nM | 199 nM |  | 
12 | CCCCC(Nc1ccc(C(=O)NCCC(=O)O)cc1)c1ccc(-c2nnc(C(F)(F)F)o2)cc1 (centres unmarked) [Compound 1-14, 3-(4-((1-(4-(5-(trifluoromethyl)-1,3,4-oxadiazol-2-yl)phenyl)pentyl)amino)benzamido)propanoic acid] |  | 3450 nM | 379 nM |  | 
13 | CCC(C)[C@H](Nc1ccc(C(=O)NCCC(=O)O)cc1)c1ccc(-c2nnc(C(F)(F)F)o2)cc1 (stereo partly drawn) [Compound 1-36, 3-(4-(((1S)-2-methyl-1-(4-(5-(trifluoromethyl)-1,3,4-oxadiazol-2-yl)phenyl)butyl)amino)benzamido)propanoic acid] |  | 2040 nM | 359 nM |  | 
14 | CCOC(=O)CCNC(=O)c1ccc(N[C@@H](c2ccc(-c3nnc(-c4ccccc4)o3)cc2)C(C)CC)cc1 (stereo partly drawn) [Compound 1-48, ethyl 3-(4-(((1R)-2-methyl-1-(4-(5-phenyl-1,3,4-oxadiazol-2-yl)phenyl)butyl)amino)benzamido)propanoate] |  | 164 nM | > 30000 nM |  | 
15 | CCOC(=O)CCNC(=O)c1ccc(NC(c2ccc(-c3nnc(-c4ccc(F)cc4)o3)cc2)C(C)C)cc1 (centres unmarked) [Compound 1-17] |  | 322 nM | 3510 nM |  | 53%

The remaining lines, values ahead:

Row | IC50 (GCGR [1]) | IC50 (glucagon receptor (GCGR)) | IC50 (GCGR [2]) | inhibition (GCGR [2]) | inhibition at 30 µM (GCGR [2]) | SMILES
16 | 53 nM | 2380 nM | 41.8 nM |  |  | CC(C)[C@H](Nc1ccc(C(=O)NCCC(=O)O)cn1)c1ccc(-c2nc3ccccc3o2)cc1 [Compound 4-30, (S)-3-(6-((1-(4-(benzo[d]oxazol-2-yl)phenyl)-2-methylpropyl)amino)nicotinamido)propanoic acid]
17 |  | 237 nM | 755 nM |  |  | CCOC(=O)CCNC(=O)c1ccc(N[C@@H](c2ccc(-c3nc4ccccc4o3)cc2)C2CCCC2)cc1 [Compound 4-11, ethyl (R)-3-(4-(((4-(benzo[d]oxazol-2-yl)phenyl)(cyclopentyl)methyl)amino)benzamido)propanoate]
18 |  | 1780 nM | 957 nM |  |  | CC(C)[C@H](Nc1ccc(-c2nnc(-c3ccccc3)o2)cc1)c1ccc(C(=O)NCCC(=O)O)cc1 [Compound 3-14, (S)-3-(4-(2-methyl-1-(4-(5-phenyl-1,3,4-oxadiazol-2-yl)phenylamino)propyl)benzamido)propanoic acid]
19 |  | 26.5 nM | 714 nM |  |  | CCOC(=O)CCNC(=O)c1ccc(N[C@H](c2ccc(-c3nc4ccccc4o3)cc2)C(C)C)cc1 [Compound 4-5, ethyl (S)-3-(4-((1-(4-(benzo[d]oxazol-2-yl)phenyl)-2-methylpropyl)amino)benzamido)propanoate]
20 |  | 2900 nM | 17 nM |  |  | CC(C)C(Nc1ccc(-c2nnc(-c3ccccc3)o2)cc1)c1ccc(C(=O)NCCC(=O)O)cc1 (centres unmarked) [Compound 3-2, 3-(4-(2-methyl-1-((4-(5-phenyl-1,3,4-oxadiazol-2-yl)phenyl)amino)propyl)benzamido)propanoic acid]
21 |  | 1750 nM | 83 nM |  |  | CC(C)C[C@H](Nc1ccc(C(=O)NCCC(=O)O)cc1)c1ccc(-c2nc3ccccc3o2)cc1 [Compound 4-18]
22 | 62 nM | 2690 nM | 47.7 nM |  |  | CC(C)[C@H](Nc1ccc(C(=O)NCCC(=O)O)cn1)c1ccc(-c2nc3ccccc3s2)cc1 [Compound 4-28, (S)-3-(6-((1-(4-(benzo[d]thiazol-2-yl)phenyl)-2-methylpropyl)amino)nicotinamido)propanoic acid]
23 |  | 52 nM | 446 nM |  |  | CCOC(=O)CCNC(=O)c1ccc(N[C@H](c2ccc(-c3nc4ccccc4o3)cc2)C(C)CC)cc1 (stereo partly drawn) [Compound 4-19, Ethyl 3-(4-(((1S)-1-(4-(benzo[d]oxazol-2-yl)phenyl)-2-methylbutyl)amino)benzamido)propanoate]
24 |  | 650 nM | 58 nM |  |  | CCC(C)C(Nc1ccc(-c2nnc(-c3ccccc3)o2)cc1)c1ccc(C(=O)NCCC(=O)O)cc1 (centres unmarked) [Compound 3-6, 3-(4-(2-methyl-1-((4-(5-phenyl-1,3,4-oxadiazol-2-yl)phenyl)amino)butyl)benzamido)propanoic acid]
